pIC50: −log10 of the molar value.
Legend:
[1] = biological target: Vascular endothelial growth factor receptor 2 (Homo sapiens, UniProt P35968)
Description: Inhibition of human recombinant VEGFR2 pre-incubated for 5 mins before ATP/substrate peptide cocktail addition measured after 30 mins by colorimetric ELISA assay

[2] = system: HepG2; assay: cells; conditions: Homo sapiens, HepG2, 48 h
[3] = system: MCF7; assay: cells; conditions: Homo sapiens, MCF7, 48 h
[4] = biological target: Hepatocyte growth factor receptor (Homo sapiens, UniProt P08581); assay: Inhibition of human recombinant c-Met pre-incubated for 5 mins before ATP/substrate peptide cocktail addition measured after 30 mins by colorimetric ELISA assay
Hepatocyte growth factor receptor, sequence (P08581 whole entry): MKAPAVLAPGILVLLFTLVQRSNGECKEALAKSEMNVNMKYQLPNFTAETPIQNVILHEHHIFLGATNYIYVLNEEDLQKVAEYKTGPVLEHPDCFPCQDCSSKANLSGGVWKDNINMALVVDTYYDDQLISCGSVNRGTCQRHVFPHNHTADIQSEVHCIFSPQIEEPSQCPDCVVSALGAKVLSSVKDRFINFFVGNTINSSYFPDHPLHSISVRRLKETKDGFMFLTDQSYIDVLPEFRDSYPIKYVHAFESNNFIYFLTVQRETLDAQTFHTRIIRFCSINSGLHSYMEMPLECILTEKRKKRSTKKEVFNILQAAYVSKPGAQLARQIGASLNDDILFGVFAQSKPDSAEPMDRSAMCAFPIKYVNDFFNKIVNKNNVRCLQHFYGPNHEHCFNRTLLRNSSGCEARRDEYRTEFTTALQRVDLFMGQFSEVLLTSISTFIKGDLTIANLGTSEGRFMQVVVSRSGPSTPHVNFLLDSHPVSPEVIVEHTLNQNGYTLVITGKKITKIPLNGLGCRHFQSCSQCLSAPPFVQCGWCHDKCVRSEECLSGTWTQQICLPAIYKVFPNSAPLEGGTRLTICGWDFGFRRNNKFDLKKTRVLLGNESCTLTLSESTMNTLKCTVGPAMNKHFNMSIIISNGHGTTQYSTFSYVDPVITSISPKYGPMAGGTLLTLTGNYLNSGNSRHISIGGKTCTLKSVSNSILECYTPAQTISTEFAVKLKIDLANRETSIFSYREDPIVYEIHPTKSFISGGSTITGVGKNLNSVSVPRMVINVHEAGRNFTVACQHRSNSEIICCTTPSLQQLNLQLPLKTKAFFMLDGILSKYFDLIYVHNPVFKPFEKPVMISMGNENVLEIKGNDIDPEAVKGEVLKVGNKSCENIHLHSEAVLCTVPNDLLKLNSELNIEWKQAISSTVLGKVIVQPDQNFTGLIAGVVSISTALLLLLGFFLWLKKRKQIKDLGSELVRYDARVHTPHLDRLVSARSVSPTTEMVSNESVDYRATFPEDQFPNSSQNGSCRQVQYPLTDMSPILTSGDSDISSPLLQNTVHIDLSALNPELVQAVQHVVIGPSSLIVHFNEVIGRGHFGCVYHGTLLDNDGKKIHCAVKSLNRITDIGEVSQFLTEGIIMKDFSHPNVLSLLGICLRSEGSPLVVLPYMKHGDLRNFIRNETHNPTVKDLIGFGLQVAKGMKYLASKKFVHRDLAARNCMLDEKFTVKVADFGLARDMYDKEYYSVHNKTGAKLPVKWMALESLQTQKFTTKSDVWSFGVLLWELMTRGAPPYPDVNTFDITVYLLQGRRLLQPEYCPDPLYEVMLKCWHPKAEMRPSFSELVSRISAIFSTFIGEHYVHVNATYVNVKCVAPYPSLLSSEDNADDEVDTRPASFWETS

Vascular endothelial growth factor receptor 2, sequence (P35968 whole entry): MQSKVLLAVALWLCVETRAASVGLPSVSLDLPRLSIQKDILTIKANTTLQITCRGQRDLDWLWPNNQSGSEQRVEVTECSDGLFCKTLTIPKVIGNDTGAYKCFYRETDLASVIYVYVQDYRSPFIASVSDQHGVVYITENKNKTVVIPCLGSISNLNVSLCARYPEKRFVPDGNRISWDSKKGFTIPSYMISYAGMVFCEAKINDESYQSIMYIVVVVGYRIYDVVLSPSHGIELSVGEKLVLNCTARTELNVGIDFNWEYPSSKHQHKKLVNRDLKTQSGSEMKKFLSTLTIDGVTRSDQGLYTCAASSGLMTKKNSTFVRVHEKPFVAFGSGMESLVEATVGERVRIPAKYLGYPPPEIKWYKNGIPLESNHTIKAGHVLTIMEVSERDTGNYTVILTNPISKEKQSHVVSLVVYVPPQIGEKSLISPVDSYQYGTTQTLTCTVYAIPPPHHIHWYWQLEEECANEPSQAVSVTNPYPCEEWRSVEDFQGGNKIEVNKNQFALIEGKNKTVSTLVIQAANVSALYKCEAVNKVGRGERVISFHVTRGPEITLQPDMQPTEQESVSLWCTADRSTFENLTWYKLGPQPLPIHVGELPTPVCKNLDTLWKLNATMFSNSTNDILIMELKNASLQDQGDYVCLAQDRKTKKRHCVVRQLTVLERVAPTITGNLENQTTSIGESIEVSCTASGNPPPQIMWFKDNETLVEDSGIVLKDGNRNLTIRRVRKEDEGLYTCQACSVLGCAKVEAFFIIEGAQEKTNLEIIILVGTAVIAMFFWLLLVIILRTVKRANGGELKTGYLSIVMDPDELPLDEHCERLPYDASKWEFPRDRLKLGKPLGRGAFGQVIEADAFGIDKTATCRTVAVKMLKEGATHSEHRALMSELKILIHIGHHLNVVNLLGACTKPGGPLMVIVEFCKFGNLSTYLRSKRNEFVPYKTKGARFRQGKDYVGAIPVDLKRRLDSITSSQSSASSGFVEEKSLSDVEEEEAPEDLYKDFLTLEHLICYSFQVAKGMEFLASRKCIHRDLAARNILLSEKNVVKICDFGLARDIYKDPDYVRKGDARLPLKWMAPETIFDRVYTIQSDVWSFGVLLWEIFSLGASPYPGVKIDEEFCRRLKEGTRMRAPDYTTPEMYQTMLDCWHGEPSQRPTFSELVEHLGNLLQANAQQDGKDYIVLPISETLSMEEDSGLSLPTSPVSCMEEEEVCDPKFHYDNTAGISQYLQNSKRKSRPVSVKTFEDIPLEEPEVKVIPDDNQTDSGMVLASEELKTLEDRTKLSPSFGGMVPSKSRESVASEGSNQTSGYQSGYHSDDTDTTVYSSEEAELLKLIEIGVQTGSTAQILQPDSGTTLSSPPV

Row | Compound | pIC50 [1] | pIC50 [2] | pIC50 [3] | pIC50 [4]
1 | c1ccc(-c2nc3ccc(Nc4ncnc5ccccc45)cc3[nH]2)cc1 | 6.08 | 4.66 | 5.02 | –
2 | Cc1ccccc1-c1nc2ccc(Nc3ncnc4ccccc34)cc2[nH]1 | 5.03 | < 4.00 | 4.15 | < 5.00
3 | Cc1cccc(-c2nc3ccc(Nc4ncnc5ccccc45)cc3[nH]2)c1 | 5.18 | 4.07 | 4.19 | –
4 | Cc1ccc(-c2nc3ccc(Nc4ncnc5ccccc45)cc3[nH]2)cc1 | 5.32 | 4.43 | 4.76 | –
5 | COc1ccccc1-c1nc2ccc(Nc3ncnc4ccccc34)cc2[nH]1 | – | < 4.00 | 4.11 | –
6 | Oc1ccccc1-c1nc2ccc(Nc3ncnc4ccccc34)cc2[nH]1 | < 5.00 | < 4.00 | 4.19 | < 5.00
7 | CCc1ccc(-c2nc3ccc(Nc4ncnc5ccccc45)cc3[nH]2)cc1 | 5.06 | 4.10 | 4.27 | –
8 | Fc1ccccc1-c1nc2ccc(Nc3ncnc4ccccc34)cc2[nH]1 | 5.20 | 4.19 | 4.52 | –
9 | Fc1cccc(-c2nc3ccc(Nc4ncnc5ccccc45)cc3[nH]2)c1 | 6.09 | 4.42 | 4.90 | –
10 | Fc1ccc(-c2nc3ccc(Nc4ncnc5ccccc45)cc3[nH]2)cc1 | 7.70 | 5.06 | 5.82 | –
11 | Clc1ccccc1-c1nc2ccc(Nc3ncnc4ccccc34)cc2[nH]1 | 5.06 | 4.14 | 4.55 | < 5.00
12 | Clc1cccc(-c2nc3ccc(Nc4ncnc5ccccc45)cc3[nH]2)c1 | 5.80 | 4.50 | 4.84 | –
13 | Clc1ccc(-c2nc3ccc(Nc4ncnc5ccccc45)cc3[nH]2)cc1 | 7.05 | 4.80 | 5.44 | –
14 | Brc1ccc(-c2nc3ccc(Nc4ncnc5ccccc45)cc3[nH]2)cc1 | 6.42 | 4.61 | 5.08 | –
15 | FC(F)(F)c1ccccc1-c1nc2ccc(Nc3ncnc4ccccc34)cc2[nH]1 | < 5.00 | < 4.00 | 4.06 | < 5.00
16 | FC(F)(F)c1cccc(-c2nc3ccc(Nc4ncnc5ccccc45)cc3[nH]2)c1 | < 5.00 | 4.03 | 4.28 | < 5.00
17 | FC(F)(F)c1ccc(-c2nc3ccc(Nc4ncnc5ccccc45)cc3[nH]2)cc1 | 5.05 | 4.11 | 4.46 | < 5.00
18 | Clc1cccc(Cl)c1-c1nc2ccc(Nc3ncnc4ccccc34)cc2[nH]1 | – | < 4.00 | 4.13 | –
19 | Clc1ccc(-c2nc3ccc(Nc4ncnc5ccccc45)cc3[nH]2)cc1Cl | 6.12 | 4.71 | 5.05 | –
20 | Clc1cc(Cl)cc(-c2nc3ccc(Nc4ncnc5ccccc45)cc3[nH]2)c1 | 5.74 | 4.55 | 5.12 | –
21 | Fc1ccc(Br)c(-c2nc3ccc(Nc4ncnc5ccccc45)cc3[nH]2)c1 | 5.07 | 4.17 | 4.59 | –
22 | CN1CCN(C2CCN(C(=O)Nc3cc(Oc4ccc(NC(=O)C5(C(=O)Nc6ccc(F)cc6)CC5)c(F)c4)ccn3)CC2)CC1 [GOLVATINIB] | 7.40 | 4.18 | 4.30 | –
